Results as given in PubChem BioAssay AID2060627 (Molecular Pharmacology Branch, DTP, NCI, 2025).
Values joined by “and” are separate entries in the source; they are usually repeats but may differ in a detail not shown here. Equal entries are not always repeated. Values belong to the compound of their own block, whether it stands above or below them.

Test system: 156681-154-R-J1-PDC complex spheroid viability
Assay: Anticancer human tumor 156681-154-R-J1-PDC patient-derived melanoma cell line growth inhibition [CLK]
Settings: for viability, T/C: stronger effect = lower value
How it was run: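 Patient-derived tumor cells grown as complex spheroids with HUVEC endothelial cells and mesenchymal stem cells, treated with drug combinations. Concentrations descend in half-log steps from near clinical Cmax, or from 10 microM if Cmax unknown.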

[1] = curve of first compound, second compound 0.0316 µM
[2] = curve of first compound, second compound 0.1 µM
[3] = curve of first compound, second compound 0.316 µM
[4] = curve of first compound, second compound 1 µM
[5] = curve of first compound, second compound 3.16 µM
[6] = curve of first compound, second compound 10 µM
[7] = second compound 0.0316 µM, first compound 0.0316 µM
[8] = second compound 0.0316 µM, first compound 0.1 µM
[9] = second compound 0.0316 µM, first compound 0.316 µM
[10] = second compound 0.0316 µM, first compound 1 µM
[11] = second compound 0.0316 µM, first compound 3.16 µM
[12] = second compound 0.0316 µM, first compound 10 µM
[13] = second compound 0.1 µM, first compound 0.0316 µM
[14] = second compound 0.1 µM, first compound 0.1 µM
[15] = second compound 0.1 µM, first compound 0.316 µM
[16] = second compound 0.1 µM, first compound 1 µM
[17] = second compound 0.1 µM, first compound 3.16 µM
[18] = second compound 0.1 µM, first compound 10 µM
[19] = second compound 0.316 µM, first compound 0.0316 µM
[20] = second compound 0.316 µM, first compound 0.1 µM
[21] = second compound 0.316 µM, first compound 0.316 µM
[22] = second compound 0.316 µM, first compound 1 µM
[23] = second compound 0.316 µM, first compound 3.16 µM
[24] = second compound 0.316 µM, first compound 10 µM
[25] = second compound 1 µM, first compound 0.0316 µM
[26] = second compound 1 µM, first compound 0.1 µM
[27] = second compound 1 µM, first compound 0.316 µM
[28] = second compound 1 µM, first compound 1 µM
[29] = second compound 1 µM, first compound 3.16 µM
[30] = second compound 1 µM, first compound 10 µM
[31] = second compound 3.16 µM, first compound 0.0316 µM
[32] = second compound 3.16 µM, first compound 0.1 µM
[33] = second compound 3.16 µM, first compound 0.316 µM
[34] = second compound 3.16 µM, first compound 1 µM
[35] = second compound 3.16 µM, first compound 3.16 µM
[36] = second compound 3.16 µM, first compound 10 µM
[37] = second compound 10 µM, first compound 0.0316 µM
[38] = second compound 10 µM, first compound 0.1 µM
[39] = second compound 10 µM, first compound 0.316 µM
[40] = second compound 10 µM, first compound 1 µM
[41] = second compound 10 µM, first compound 3.16 µM
[42] = second compound 10 µM, first compound 10 µM
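Further: spheroids exposed to the agents for seven days.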
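Wherever viability, T/C is given: 100% = DMSO vehicle control viability.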

Compound: COc1cccc2c1C(=O)c1c(O)c3c(c(O)c1C2=O)CC(O)(C(=O)CO)CC3OC1CC(N)C(O)C(C)O1 (configuration not stated) + CN1CCN(c2cc(C(=O)Nc3cc4cc(-c5cnn(C)c5)ccc4cn3)ccn2)CC1
IC50 [1]: < 0.0316 µM
IC50 [2]: < 0.0316 µM
IC50 [3]: < 0.0316 µM
IC50 [4]: < 0.0316 µM
IC50 [5]: < 0.0316 µM
IC50 [6]: < 0.0316 µM
viability, T/C [7]: 43.4%
viability, T/C [8]: 48.3%
viability, T/C [9]: 4.36%
viability, T/C [10]: 0.18%
viability, T/C [11]: 0.09%
viability, T/C [12]: 3.75%
viability, T/C [13]: 30.6%
viability, T/C [14]: 22.5%
viability, T/C [15]: 3.39%
viability, T/C [16]: 0.14%
viability, T/C [17]: 0.09%
viability, T/C [18]: 0.26%
viability, T/C [19]: 11.2%
viability, T/C [20]: 5.67%
viability, T/C [21]: 0.29%
viability, T/C [22]: 0.1%
viability, T/C [23]: 0.2%
viability, T/C [24]: 1.51%
viability, T/C [25]: 0.37%
viability, T/C [26]: 0.13%
viability, T/C [27]: 0.57%
viability, T/C [28]: 2.6%
viability, T/C [29]: 0.76%
viability, T/C [30]: 0.18%
viability, T/C [31]: 0.05%
viability, T/C [32]: 0.07%
viability, T/C [33]: 0.08%
viability, T/C [34]: 1.69%
viability, T/C [35]: 1.88%
viability, T/C [36]: 0.27%
viability, T/C [37]: 0.05%
viability, T/C [38]: 1.66%
viability, T/C [39]: 2.85%
viability, T/C [40]: 0.12%
viability, T/C [41]: 1.59%
viability, T/C [42]: 0.51%

Compound: COC1C=CCC(C)C(C)S(=O)(=O)NC(=O)c2ccc3c(c2)N(CC2CCC21)CC1(CCCc2cc(Cl)ccc21)CO3 (configuration not stated) + CN1CCN(c2cc(C(=O)Nc3cc4cc(-c5cnn(C)c5)ccc4cn3)ccn2)CC1
IC50 [1]: 1.6 µM
IC50 [2]: 1.17 µM
IC50 [3]: < 0.0316 µM
IC50 [4]: < 0.0316 µM
IC50 [5]: < 0.0316 µM
IC50 [6]: < 0.0316 µM
viability, T/C [7]: 111%
viability, T/C [8]: 83.4%
viability, T/C [9]: 86.8%
viability, T/C [10]: 75.4%
viability, T/C [11]: 13.8%
viability, T/C [12]: 1.82%
viability, T/C [13]: 90.1%
viability, T/C [14]: 97.8%
viability, T/C [15]: 81.2%
viability, T/C [16]: 58%
viability, T/C [17]: 11.7%
viability, T/C [18]: 2.71%
viability, T/C [19]: 27.3%
viability, T/C [20]: 17.2%
viability, T/C [21]: 16.7%
viability, T/C [22]: 10.2%
viability, T/C [23]: 4.46%
viability, T/C [24]: 1.8%
viability, T/C [25]: 0.2%
viability, T/C [26]: 0.34%
viability, T/C [27]: 0.18%
viability, T/C [28]: 0.14%
viability, T/C [29]: 0.12%
viability, T/C [30]: 2.25%
viability, T/C [31]: 0.14%
viability, T/C [32]: 2.92%
viability, T/C [33]: 1.77%
viability, T/C [34]: 0.13%
viability, T/C [35]: 2.33%
viability, T/C [36]: 1.15%
viability, T/C [37]: 0.16%
viability, T/C [38]: 0.14%
viability, T/C [39]: 0.26%
viability, T/C [40]: 0.22%
viability, T/C [41]: 0.29%
viability, T/C [42]: 0.25%

More lines, main results first:

IC50 [1]: < 0.0316 µM
IC50 [2]: < 0.0316 µM
IC50 [3]: < 0.0316 µM
IC50 [4]: < 0.0316 µM
IC50 [5]: < 0.0316 µM
IC50 [6]: < 0.0316 µM
Compound: Nc1ccn(C2OC(CO)C(O)C2(F)F)c(=O)n1 (configuration not stated) + CNC(=O)c1ccc(Nc2nc(OC3CCCC3)c3c(-c4ccc5nc(C)oc5c4)c[nH]c3n2)c(OC)c1
viability, T/C [7]: 12.3%
viability, T/C [8]: 15.9%
viability, T/C [9]: 13.6%
viability, T/C [10]: 17.9%
viability, T/C [11]: 15.6%
viability, T/C [12]: 15.2%
viability, T/C [13]: 13.2%
viability, T/C [14]: 13.4%
viability, T/C [15]: 14.2%
viability, T/C [16]: 16.1%
viability, T/C [17]: 15.7%
viability, T/C [18]: 14%
viability, T/C [19]: 15.7%
viability, T/C [20]: 11.9%
viability, T/C [21]: 19%
viability, T/C [22]: 13%
viability, T/C [23]: 12.2%
viability, T/C [24]: 12.5%
viability, T/C [25]: 20.5%
viability, T/C [26]: 11.2%
viability, T/C [27]: 7.8%
viability, T/C [28]: 9.13%
viability, T/C [29]: 12.3%
viability, T/C [30]: 10.8%
viability, T/C [31]: 25.3%
viability, T/C [32]: 12.3%
viability, T/C [33]: 9.98%
viability, T/C [34]: 7.12%
viability, T/C [35]: 11.4%
viability, T/C [36]: 7.7%
viability, T/C [37]: 28.5%
viability, T/C [38]: 12.4%
viability, T/C [39]: 9.66%
viability, T/C [40]: 9.99%
viability, T/C [41]: 12.1%
viability, T/C [42]: 7.49%

IC50 (curve of compound): 3.38 µM and 1.26 µM
Compound: COc1ccc([C@@H](O)c2cc(-c3ncnc4cc(N5CCOCC5)ccc34)c(F)cc2Cl)nn1
viability, T/C (compound 0.0316 µM): 109% and 79.3%
viability, T/C (compound 0.1 µM): 80.7% and 73.7%
viability, T/C (compound 0.316 µM): 90.2% and 74.1%
viability, T/C (compound 1 µM): 74.8% and 48.6%
viability, T/C (compound 3.16 µM): 49.6% and 41.3%
viability, T/C (compound 10 µM): 24.8% and 27.6%

IC50 (curve of compound): 0.027 µM and 0.0203 µM
Compound: COc1c(OCCCN2CCOCC2)ccc2c3n(c(=NC(=O)c4cnc(N)nc4)nc12)CCN3
viability, T/C (compound 0.00316 µM): 73.2% and 68.2%
viability, T/C (compound 0.01 µM): 69.9% and 67.5%
viability, T/C (compound 0.0316 µM): 45.8% and 39.1%
viability, T/C (compound 0.1 µM): 19.1% and 13.5%
viability, T/C (compound 0.316 µM): 3.62% and 2.73%
viability, T/C (compound 1 µM): 1.16% and 0.46%

IC50 (compound alone, run of 08/14/2023): 212 nM [middle of 9 runs]
Compound: CN1CCN(c2cc(C(=O)Nc3cc4cc(-c5cnn(C)c5)ccc4cn3)ccn2)CC1
viability, T/C (compound 0.0316 µM): 102% [middle of 12 runs]
viability, T/C (compound 0.1 µM): 97.7% [middle of 12 runs]
viability, T/C (compound 0.316 µM): 24.3% [middle of 12 runs]
viability, T/C (compound 1 µM): 1.19% [middle of 12 runs]
viability, T/C (compound 3.16 µM): 0.58% [middle of 11 runs]
viability, T/C (compound 10 µM): 0.34% [middle of 10 runs]
